Where a name gives a salt, the structure may show the parent alone.
How the values were obtained:
[1] = Elimination of inhaled NAC from the lungs in animal studies; assay type: in vivo; conditions: inhaled or intranasal, 14C-labeled NAC, administered by inhalation, animal studies (unpublished observation)
Text: NAC, as a topical pulmonary therapeutic agent, is not optimal for the reduction of mucin disulfide bonds. […] For example, in the pH environment of the airway surface (measured in the range of pH 6.0 to 7.2 in CF and COPD airways), NAC exists only partially in its reactive state as a negatively charge thiolate (Jayaraman S, Song Y, Vetrivel L, Shankar L, Verkman A S. Noninvasive in vivo fluorescence measurement of airway-surface liquid depth, salt concentration, and pH. J Clin Invest. 2001; 107(3):317-24) (FIG. 3). […] The relatively low reducing activity at of NAC physiologic airway pH and a the short half-life of NAC on the lung surface provide an explanation for the lack of strong clinical evidence for effective mucus reduction in mucus obstructive diseases.

[2] = DTNB assay: rate of disulfide bond reduction; assay type: biochemical; design: unit not given here; conditions: 2nd order kinetic
Experimental: DTNB ASSAY: This assay determines the rate which a mucolytic agent can reduce a disulfide bond using 5,5-Dithiobis(2-nitrobenzoic acid). DTNB in various pH buffers and allows comparison of the kinetic rates of reducing agents. First, reducing agent stock solutions (30 mM) were made up in DMSO. Each compound stock solution was diluted, […] in 1 ml 50 mM Tris-HCl buffer, pH 7.5, and then added in a 1:1 volumetric ratio to a solution of 100 mM DTNB in 50 mM Tris-HCl buffer, pH 7.5. Max Abs412 was measured and then utilized to calculate the activity concentration. If the observed activity concentrations differed from expected activity concentrations by more than 5%, the volume was accordingly adjusted to kinetically test the rate in the next step. After having added the reducing agents, diluted in a range of pH buffer solutions (pH 6.0-7.5), to 45 mM DTNB in 50 mM Tris-HCl and measured the Abs412 for 5 min rates were calculated as a 2nd order kinetic.

sheep treated with NE = assay: TMV studies in sheep (neutrophil elastase model of acute bronchitis); assay type: in vivo; conditions: 1 μmole/kg by aerosol after neutrophil elastase (NE)
Experimental: Test articles were administered to the pulmonary surfaces as an inhalation aerosol. For human neutrophil Elastase (HNE) studies, tracheal mucus velocity (TMV) was measured at 1 and 2 hours after HNE (but before drug); and 1, 30, 60, 90, and 120 minutes post-aerosol administration of Compound G.
The measurements of TMV were made as follows: Eight to 10 radiopaque Teflon disks (˜1 mm in diameter, 0.8 mm thick, and weighing between 1.5-2 mg) were introduced into the trachea via an endotracheal tube (ETT). The particles were insufflated by a catheter connected to a source of compressed air (flow rate of 3-4 ml/min at 50 psi). The catheter was removed following insufflation without contacting the tracheal surface. To minimize the ETT effects on TMV, the cuff was deflated throughout the study except for the period of drug delivery. The disk movements were recorded using videotaped fluoroscopy, and individual disk velocities were calculated by measuring the distance traveled by each disk over a 60-s period. A collar containing radiopaque markers of predetermined length was placed around the animal's neck, which was used as a standard to correct for magnification effects intrinsic to the fluoroscopy unit. The mean value of disk velocities was calculated for each time point. To avoid dehydration, the sheep were periodically gavaged with tap water via a nastrogastric tube. […]

half-life [1]	SMILES	Kinetic Reaction Rates of Reduction of DTNB ([2]; pH 6)	Kinetic Reaction Rates of Reduction of DTNB ([2]; pH 6.5)	Kinetic Reaction Rates of Reduction of DTNB ([2]; pH 7)	Kinetic Reaction Rates of Reduction of DTNB ([2]; pH 7.5)	Duration of TMV restoration post-dosing (sheep treated with NE)	Tracheal mucus velocity (TMV) (sheep treated with NE; compared with vehicle)
~20 min	CC(=O)N[C@@H](CS)C(=O)O [NAC, N-acetyl cysteine, reference compound]	10	26	69	230	–	–
–	N=C(N)NCCCC[C@@H](N)C(=O)NCCOc1cc(CS)c(CS)cc1OCCNC(=O)[C@H](N)CCCCNC(=N)N [Compound G, (2R,2′R)-N,N′-(2,2′-(4,5-bis(mercaptomethyl)-1,2-phenylene)bis(oxy)bis(ethane-2,1-diyl))bis(2-amino-6-guanidinohexanamide) Hydrochloride]	5154	–	–	–	2 h	restored TMV to normal, pre-NE levels
